Assay results published in the supplement of paper PMC10307832.

Assays:
Experiment in all cases: relative viability (nuclei count vs DMSO), 5 days (fraction); higher = more cells survive
Metformin + Alpelisib = compound: CN(C)C(=N)NC(=N)N [Metformin] + Cc1nc(NC(=O)N2CCC[C@H]2C(N)=O)sc1-c1ccnc(C(C)(C)C(F)(F)F)c1 [Alpelisib] (partner 2 µM)
Procedure, shortened: (§1)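 Lung cancer cell lines were pin-tool dosed in 1536-well plates on the day after seeding, with either a lone drug or a fixed anchor-drug dose plus five library-drug doses (not always all listed) in √10 steps. Nuclei were counted on 4× images after 5 days. Relative viability is the ratio of treated-well to vehicle-well nuclei counts, with each value a median of duplicate plates.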

Metformin + Dasatinib = compound: CN(C)C(=N)NC(=N)N [Metformin] + Cc1nc(Nc2ncc(C(=O)Nc3c(C)cccc3Cl)s2)cc(N2CCN(CCO)CC2)n1 [Dasatinib] (partner 0.075 µM)
Procedure, shortened: as §1

Apatinib + Foretinib = compound: N#CC1(c2ccc(NC(=O)c3cccnc3NCc3ccncc3)cc2)CCCC1 [Apatinib] + COc1cc2c(Oc3ccc(NC(=O)C4(C(=O)Nc5ccc(F)cc5)CC4)cc3F)ccnc2cc1OCCCN1CCOCC1 [Foretinib] (partner 0.25 µM)
Procedure, shortened: as §1

Apatinib + Phenformin = compound: N#CC1(c2ccc(NC(=O)c3cccnc3NCc3ccncc3)cc2)CCCC1 [Apatinib] + N=C(N)NC(=N)NCCc1ccccc1 [Phenformin] (partner 250 µM)
Procedure, shortened: as §1

Cell Line	relative viability (Metformin + Alpelisib; first compound 10 µM)	relative viability (Metformin + Alpelisib; first compound 31.62 µM)	relative viability (Metformin + Alpelisib; first compound 100 µM)	relative viability (Metformin + Alpelisib; first compound 316.23 µM)	relative viability (Metformin + Alpelisib; first compound 1000 µM)	relative viability (Metformin + Dasatinib; first compound 10 µM)	relative viability (Metformin + Dasatinib; first compound 31.62 µM)	relative viability (Metformin + Dasatinib; first compound 100 µM)	relative viability (Metformin + Dasatinib; first compound 316.23 µM)	relative viability (Metformin + Dasatinib; first compound 1000 µM)	relative viability (Apatinib + Foretinib; first compound 0.08 µM)	relative viability (Apatinib + Foretinib; first compound 0.253 µM)	relative viability (Apatinib + Foretinib; first compound 0.8 µM)	relative viability (Apatinib + Foretinib; first compound 2.53 µM)	relative viability (Apatinib + Foretinib; first compound 8 µM)	relative viability (Apatinib + Phenformin; first compound 0.08 µM)	relative viability (Apatinib + Phenformin; first compound 0.253 µM)	relative viability (Apatinib + Phenformin; first compound 0.8 µM)	relative viability (Apatinib + Phenformin; first compound 2.53 µM)	relative viability (Apatinib + Phenformin; first compound 8 µM)
LU99A	0.404	0.4	0.379	0.382	0.44	0.415	0.459	0.511	0.516	0.538	0.88	0.891	0.769	0.78	0.682	0.914	1.01	0.816	0.799	0.813
EPLC-272H	1.15	1.04	1.1	1.04	1.13	0.358	0.445	0.462	0.426	0.394	0.773	–	0.802	0.671	0.394	0.325	–	0.318	0.333	0.265
EMC-BAC-2	0.612	0.704	0.675	0.639	0.674	0.37	0.312	0.323	0.334	0.395	1.08	1.12	1.04	0.919	0.858	0.578	0.568	0.463	0.383	0.39
NCI-H1395	0.835	1.02	1.1	0.424	0.342	0.438	0.483	0.493	0.385	0.509	1.02	1.01	1.04	0.99	1.02	0.464	0.419	0.454	0.412	0.459
NCI-H1355	0.746	0.787	0.853	0.857	0.842	0.718	0.638	0.681	0.638	0.778	0.961	0.9	1.07	0.9	0.786	0.438	0.443	0.447	0.406	0.385
RERF-LC-KJ	0.702	0.746	0.788	0.619	0.735	0.689	0.709	0.613	0.462	0.534	0.875	0.931	0.857	0.737	0.733	0.452	0.403	0.401	0.427	0.454
NCI-H661	0.745	0.404	0.711	0.757	0.774	–	0.895	0.995	0.828	0.893	1	0.93	1.04	1.02	0.941	0.279	0.273	0.273	0.263	0.277
SK-LU-1	0.916	0.934	0.829	0.948	1.07	0.171	0.192	0.174	0.17	0.177	1.01	0.857	0.859	0.719	0.732	0.607	0.594	0.471	0.413	0.454
HARA	0.915	0.902	1.06	0.89	0.964	–	0.311	0.389	0.319	0.423	0.976	0.898	0.812	0.847	0.93	0.424	0.455	0.391	0.28	0.298
HCC-366	0.43	0.545	0.472	0.452	0.535	0.565	0.566	0.632	0.568	0.81	0.977	0.904	0.966	0.93	0.963	0.635	0.61	0.578	0.525	0.456
HCC-827	–	0.822	0.896	0.837	0.782	–	0.317	0.356	0.317	0.316	1.05	1.04	1.01	1	0.763	0.4	0.406	0.212	0.382	0.351
NCI-H2126	0.695	0.752	0.755	0.716	0.755	0.548	0.557	0.556	0.372	0.337	1.28	1.12	1.23	0.954	0.987	0.564	0.501	0.512	0.521	0.523
ABC-1	–	1.08	0.999	0.745	0.349	0.414	0.73	0.659	0.316	0.31	–	1.27	0.961	1.1	1.02	–	0.264	0.234	0.217	0.249
LK-2	1.56	1.53	1.63	1.36	1.32	0.447	0.424	0.381	0.383	0.558	1.37	1.13	1.13	1.1	0.645	0.485	0.51	0.467	0.287	0.258
COR-L23	0.633	0.721	0.72	0.564	0.7	0.496	0.436	0.413	0.393	0.121	1.03	0.952	0.926	0.903	0.836	0.5	0.421	0.427	0.395	0.438
NCI-H1915	–	1.14	1.09	1.04	1.11	–	0.34	0.346	0.335	0.355	1.18	1.08	1.03	0.943	0.836	0.377	0.353	0.334	0.354	0.326
NCI-H2228	0.917	0.85	–	0.542	0.898	0.519	0.576	0.438	0.458	0.55	0.933	0.791	0.777	0.688	0.51	0.423	0.284	0.223	0.29	0.301
